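96-well plates; 48 h exposure; 5 concentrations. Endpoints by linear interpolation between flanking doses. Not reached: highest tested concentration assigned. Abbreviation: GI50, concentration required for 50% inhibition of growth. TGI denotes the concentration required for complete inhibition of growth.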
Assays:
Assay in all cases: inhibition of tumour cell growth, NCI panel, 48 h
UACC-257 melanoma = tested on: UACC-257 melanoma
HCT-116 colon = tested on: HCT-116 colon
HL-60(TB) leukemia = tested on: HL-60(TB) leukemia
MDA-MB-231 breast = tested on: MDA-MB-231 breast
IGROV1 ovarian = tested on: IGROV1 ovarian
RXF 393 renal = tested on: RXF 393 renal
SK-OV-3 ovarian = tested on: SK-OV-3 ovarian
BT-549 breast = tested on: BT-549 breast
NCI-H460 lung = tested on: NCI-H460 lung
NCI/ADR-RES ovarian = tested on: NCI/ADR-RES ovarian
HT29 colon = tested on: HT29 colon

| Structure (SMILES) | TGI (UACC-257 melanoma) | TGI (HCT-116 colon) | TGI (HL-60(TB) leukemia) | TGI (MDA-MB-231 breast) | TGI (IGROV1 ovarian) | TGI (RXF 393 renal) | TGI (SK-OV-3 ovarian) | TGI (BT-549 breast) | TGI (NCI-H460 lung) | TGI (NCI/ADR-RES ovarian) | TGI (HT29 colon) | GI50 (UACC-257 melanoma) | GI50 (MDA-MB-231 breast) | GI50 (RXF 393 renal) | GI50 (NCI/ADR-RES ovarian) | GI50 (HT29 colon) |
| --- | --- | --- | --- | --- | --- | --- | --- | --- | --- | --- | --- | --- | --- | --- | --- | --- |
| O=c1oc2ccccc2n1CCN1CCCCC1 | > 100 µM | > 100 µM | > 100 µM | > 100 µM | > 100 µM | > 100 µM | > 100 µM | > 100 µM | > 100 µM | > 100 µM | > 100 µM | – | – | – | – | – |
| CNC(=O)c1[nH]cnc1/N=N/N(C)N | > 100 µM | > 100 µM | – | > 100 µM | > 100 µM | > 100 µM | > 100 µM | > 100 µM | > 100 µM | > 100 µM | > 100 µM | – | – | – | – | – |
| Cc1nc2c(sc3nc4ccccc4n32)c(=O)[nH]1 | > 100 µM | > 100 µM | – | > 100 µM | > 100 µM | > 100 µM | > 100 µM | > 100 µM | – | > 100 µM | – | – | – | – | – | – |
| O=C(CSCC(=O)N/N=C\c1ccc(-c2ccccc2)cc1)N/N=C\c1ccc(-c2ccccc2)cc1 | > 100 µM | 21.4 µM | – | 25.2 µM | 29.2 µM | > 100 µM | 38.9 µM | 66.3 µM | > 100 µM | > 100 µM | 76.6 µM | – | – | – | – | – |
| COC(=O)/C=c1/c2ccccc2n2nc3ccccc3c12 | > 100 µM | > 100 µM | > 100 µM | 91.3 µM | > 100 µM | > 100 µM | 61.3 µM | > 100 µM | > 100 µM | > 100 µM | > 100 µM | – | – | – | – | – |
| COc1ccc(CCNC(=O)Cc2cc(OC)c(OC)cc2CO)cc1OC | > 100 µM | > 100 µM | > 100 µM | > 100 µM | > 100 µM | > 100 µM | > 100 µM | > 100 µM | > 100 µM | > 100 µM | > 100 µM | – | – | – | – | – |
| c1ccc(CSc2nc(N3CCOCC3)c3cn[nH]c3n2)cc1 | 29.9 µM | > 100 µM | > 100 µM | 39.4 µM | 31.7 µM | 32.9 µM | > 100 µM | 40.3 µM | 59 µM | 55.6 µM | > 100 µM | – | – | – | – | – |
| Cc1cccc(NC(=S)Nc2ccccc2Cl)n1 | 74.2 µM | > 100 µM | > 100 µM | – | > 100 µM | 60 µM | 51.8 µM | > 100 µM | > 100 µM | > 100 µM | > 100 µM | – | – | – | – | – |
| O=c1[nH]nc(Cc2ccccc2)n1Nc1ccccc1 | > 100 µM | > 100 µM | > 100 µM | > 100 µM | > 100 µM | – | – | > 100 µM | > 100 µM | > 100 µM | > 100 µM | – | – | – | – | – |
| COC(=O)c1c(C)cccc1CC1Cc2c(C)cccc2C1=O (centres undefined) | 72.9 µM | > 100 µM | 45.5 µM | > 100 µM | > 100 µM | > 100 µM | > 100 µM | > 100 µM | > 100 µM | 64.2 µM | > 100 µM | – | – | – | – | – |
| O=[N+]([O-])c1ccc2nc(/C=C(\O)c3ccc(F)cc3)c(/C=C(\O)c3ccc(F)cc3)nc2c1 | > 100 µM | > 100 µM | 55.7 µM | 69.6 µM | > 100 µM | 40.7 µM | 47.5 µM | 91.5 µM | > 100 µM | > 100 µM | > 100 µM | – | – | – | – | – |
| CC(C)CCn1c(=O)c2c(=O)[nH][nH]c2c2ccccc21 | > 100 µM | > 100 µM | > 100 µM | > 100 µM | > 100 µM | – | – | > 100 µM | > 100 µM | > 100 µM | > 100 µM | – | – | – | – | – |
| CCN(CC)C(=S)SS(=O)(=O)c1ccc([N+](=O)[O-])cc1 | 53.5 µM | – | – | 66.4 µM | – | 32.1 µM | > 100 µM | > 100 µM | > 100 µM | > 100 µM | 64.7 µM | 24 µM | 25.9 µM | 16 µM | 48.3 µM | 22 µM |
| CN1CN(c2ccccc2)C2(CCN(CCc3csc4ccccc34)CC2)C1=O | 28.4 µM | 23.4 µM | 31.2 µM | – | 52.3 µM | 25.3 µM | 76.9 µM | 17.7 µM | – | 28.1 µM | 17.8 µM | – | – | – | – | – |
| CC[C@H]1OC([C@H](O)C/C=C\C#C[Si](C)(C)C)C/C=C\C[C@H]1O[Si](C)(C)C(C)(C)C (some centres undefined) | – | > 100 µM | – | > 100 µM | > 100 µM | > 100 µM | > 100 µM | > 100 µM | > 100 µM | > 100 µM | > 100 µM | – | – | – | – | – |
| CCC1C(c2cc(OC)c(OC)c(OC)c2)c2cc3c(cc2OC1N1CCOCC1)OCO3 (centres undefined) | 55.5 µM | 13.4 µM | – | 61.9 µM | 17.4 µM | – | 23.4 µM | 22 µM | 12.3 µM | > 100 µM | 7.36 µM | – | – | – | – | – |
| O=C(CC(C(=O)c1ccoc1)c1ccco1)c1ccco1 (centres undefined) | > 100 µM | > 100 µM | > 100 µM | > 100 µM | > 100 µM | > 100 µM | > 100 µM | – | > 100 µM | > 100 µM | > 100 µM | – | – | – | – | – |
| COc1cc2c(c(OC)c1OC)-c1ccc(SC)cc1[C@H](OC(=O)c1ccccc1)CC2 | > 100 µM | 1.45 µM | 0.487 µM | – | > 100 µM | 0.452 µM | > 100 µM | > 100 µM | > 100 µM | – | – | – | – | – | – | – |
| CC1(C)CC(=O)c2c(nc3ccc4ccccc4c3c2-c2ccc(NC(=O)CCC(=O)Nc3ccc(-c4c5c(nc6ccc7ccccc7c46)CC(C)(C)CC5=O)cc3)cc2)C1 | > 100 µM | > 100 µM | > 100 µM | > 100 µM | > 100 µM | > 100 µM | > 100 µM | – | > 100 µM | > 100 µM | > 100 µM | – | – | – | – | – |
| COCc1cc2c(cc1/C=C/[N+](=O)[O-])OCO2 | 30.8 µM | 34 µM | 85.6 µM | 34.7 µM | 51.1 µM | 32.3 µM | 31.9 µM | – | 34.3 µM | 47 µM | 34.6 µM | – | – | – | – | – |
| COC(=O)c1c(C)cccc1/C=C1\Cc2cc(C)cc(C)c2C1=O | > 100 µM | > 100 µM | > 100 µM | > 100 µM | > 100 µM | 58.5 µM | – | > 100 µM | > 100 µM | – | > 100 µM | – | – | – | – | – |

Reference: PubChem BioAssay (NCI)
